Values quoted from earlier work as cited in patent USRE46284E1, “Method of administrating an anticancer drug containing α, α, α-trifluorothymidine and thymidine phosphorylase inhibitor” (TAIHO PHARMACEUTICAL CO., LTD., priority 2005, dated 2017).

Conditions: human, intravenous administration

O=c1[nH]c(=O)n([C@H]2C[C@H](O)[C@@H](CO)O2)cc1C(F)(F)F [FTD, α,α,α-trifluorothymidine]
half-life in the blood: approximately 12 minutes
